The text below walks through data of US5008260A, “Cephem derivatives” (Eisai Co., Ltd., priority 1985, dated 1991).

≈ marks a conversion by molar mass, not a printed value.

The conditions of data set [1]: mouse, intravenous injection; prior-art compound; cited from earlier work.
Data set [2] concerns Staphylococcus aureus 209-P. The experiment in a line: Antibacterial activity (MIC), Staphylococcus aureus 209-P. Type of data set: cell-based.
The test system of data set [3] is Staphylococcus aureus E31106. The experiment in a line: Antibacterial activity (MIC), Staphylococcus aureus E31106. Conditions: Staphylococcus aureus E31106, lactamase producing bacteria. Format: cell-based.
The test system of another data set is Escherichia coli NIHJ. The experiment in a line: Antibacterial activity (MIC), Escherichia coli NIHJ. Format: cell-based.
The subject of data set [4] is Pseudomonas aeruginosa EP-01. In words: Antibacterial activity (MIC), Pseudomonas aeruginosa EP-01. Format: cell-based. Conditions: EP01.
The subject of data set [5] is Serratia marcescens ES-75. The experiment in a line: Antibacterial activity (MIC), Serratia marcescens ES-75. Type of data set: cell-based. The conditions noted are these: ES75.
In data set [6] the test system is Pseudomonas maltophilia E04004. The experiment in a line: Antibacterial activity (MIC), Pseudomonas maltophilia E04004. Type of data set: cell-based. The conditions noted are these: Stenotrophomonas maltophilia.
The test system of data set [7] is Citrobacter freundii EC-34. In words: Antibacterial activity (MIC), Citrobacter freundii EC-34. Format: cell-based. The conditions noted are these: EC34; Citrobacter freundii EC-34, lactamase producing bacteria.
Data set [8] can be described thus: Acute toxicity LD50 (mouse, intravenous injection). Conditions: in vivo.

With `CO/N=C(\C(=O)N[C@@H]1C(=O)N2C(C(=O)[O-])=C(C[N+]34CCC(CC3)CC4)CS[C@H]12)c1csc(N)n1` [7β-[(Z)-2-(2-aminothiazol-4-yl)-2-methoxyiminoacetamido]-3-(1-quinuclidinio)methyl-3-cephem-4-carboxylate], the “acute toxic value LD50” value in data set [1] is at most 100 mg/kg.

Turning to `CO/N=C(\C(=O)N[C@@H]1C(=O)N2C(C(=O)[O-])=C(C[N+]34CCC(O)(CC3)C4)CS[C@H]12)c1csc(N)n1` [Example 1, 7β-[(Z)-2-(2-Aminothiazol-4-yl)-2-methoxyiminoacetamido]-3-(4-hydroxy-1,4-methylene-1-piperidinio)methyl-3-cephem-4-carboxylate], the minimal inhibitory concentration (MIC) – broadly, the lowest concentration that inhibits growth of the organism – came to 0.8 µg/mL (≈ 1.57 µM) in [2]; 100 µg/mL (≈ 197 µM) in [3]; 0.05 µg/mL (≈ 0.0983 µM) in the data set on Escherichia coli NIHJ; 1.56 µg/mL (≈ 3.07 µM) in data set [4]; 0.1 µg/mL (≈ 0.197 µM) in data set [5]; 25 µg/mL (≈ 49.2 µM) in [6]. The molecule further came in with an MIC in data set [7] of 0.1 µg/mL (≈ 0.197 µM). In data set [8], the 50% lethal dose (LD50) (usually the dose at which mortality reaches 50%) is above 3000 mg/kg.

Turning to `CO/N=C(\C(=O)N[C@@H]1C(=O)N2C(C(=O)[O-])=C(C[N+]34CCC(O)(CC3)C4)CS[C@H]12)c1nsc(N)n1` [Example 2, 7β-[(Z)-2-(5-Amino-1,2,4-thiadiazol-3-yl)-2-methoxyiminoacetamido]-3-(4-hydroxy-1,4-methylene-1-piperidinio)methyl-3-cephem-4-carboxylate], the MIC in data set [2] amounted to 0.8 µg/mL (≈ 1.57 µM); in data set [3], 50 µg/mL (≈ 98.1 µM); in the data set with Escherichia coli NIHJ, 0.1 µg/mL (≈ 0.196 µM); in data set [4] it was 0.8 µg/mL (≈ 1.57 µM); in data set [5], 0.2 µg/mL (≈ 0.392 µM); in data set [6] it was 12.5 µg/mL (≈ 24.5 µM). Besides, the MIC in [7] came out at 0.1 µg/mL (≈ 0.196 µM). Moreover, the LD50 in data set [8] was above 3000 mg/kg.

Regarding `CO/N=C(\C(=O)N[C@@H]1C(=O)N2C(C(=O)[O-])=C(C[N+]34CCC(O)(CC3)CC4)CS[C@H]12)c1csc(N)n1` [Example 3, 7β-[(Z)-2-(2-Aminothiazol-4-yl)-2-methoxyiminoacetamido]-3-(4-hydroxy-1-quinuclidinio)methyl-3-cephem-4-carboxylate], the minimal inhibitory concentration (MIC) in data set [2] came to 0.8 µg/mL (≈ 1.53 µM); in [3] it was 100 µg/mL (≈ 191 µM); against Escherichia coli NIHJ, 0.05 µg/mL (≈ 0.0957 µM); in data set [4], 1.56 µg/mL (≈ 2.99 µM); in data set [5] it was 0.1 µg/mL (≈ 0.191 µM); in [6] it was 6.25 µg/mL (≈ 12 µM). The molecule further gave an MIC in data set [7] of 0.1 µg/mL (≈ 0.191 µM). Besides, the LD50 in data set [8] is above 3000 mg/kg.

For `CO/N=C(\C(=O)N[C@@H]1C(=O)N2C(C(=O)[O-])=C(C[N+]34CCC(O)(CC3)CC4)CS[C@H]12)c1nsc(N)n1` [Example 4, 7β-[(Z)-2-(5-Amino-1,2,4-thiadiazol-3-yl)-2-methoxyiminoacetamido]-3-(4-hydroxy-1-quinuclidinio)methyl-3-cephem-4-carboxylate], the MIC in data set [2] was found to be 1.56 µg/mL (≈ 2.98 µM); in data set [3], 25 µg/mL (≈ 47.7 µM); with Escherichia coli NIHJ it was 0.1 µg/mL (≈ 0.191 µM); in data set [4] it was 0.8 µg/mL (≈ 1.53 µM); in [5] it was 0.2 µg/mL (≈ 0.382 µM); in [6], 6.25 µg/mL (≈ 11.9 µM). Moreover, the lowest concentration to inhibit growth in data set [7] (MIC) was 0.1 µg/mL (≈ 0.191 µM). This molecule came in with an LD50 in data set [8] above 3000 mg/kg.

Take `CO/N=C(\C(=O)N[C@@H]1C(=O)N2C(C(=O)[O-])=C(C[N+]34CCC(C(N)=O)(CC3)CC4)CS[C@H]12)c1csc(N)n1` [Example 5, 7β-[(Z)-2-(2-Aminothiazol-4-yl)-2-methoxyiminoacetamido]-3-(4-carbamoyl-1-quinuclidinio)methyl-3-cephem-4-carboxylate]: the MIC in data set [2] amounted to 1.56 µg/mL (≈ 2.84 µM); in [3], 100 µg/mL (≈ 182 µM); with Escherichia coli NIHJ, 0.05 µg/mL (≈ 0.091 µM); in data set [4], 1.56 µg/mL (≈ 2.84 µM); in [5], 0.05 µg/mL (≈ 0.091 µM); in data set [6], 12.5 µg/mL (≈ 22.7 µM). This molecule also gave a minimal inhibitory concentration (MIC) in [7] of 0.1 µg/mL (≈ 0.182 µM). Also, the median lethal dose (LD50) in data set [8] is above 3000 mg/kg.

For `CO/N=C(\C(=O)N[C@@H]1C(=O)N2C(C(=O)[O-])=C(C[N+]34CCC(C(N)=O)(CC3)CC4)CS[C@H]12)c1nsc(N)n1` [Example 6, 7β-[(Z)-2-(5-Amino-1,2,4-thiadiazol-3-yl)-2-methoxyiminoacetamido]-3-(4-carbamoyl-1-quinuclidinio)methyl-3-cephem-4-carboxylate], the minimal inhibitory concentration (MIC) was 3.13 µg/mL (≈ 5.68 µM) in data set [2]; 25 µg/mL (≈ 45.4 µM) in data set [3]; 0.1 µg/mL (≈ 0.182 µM) in the data set with Escherichia coli NIHJ; 0.4 µg/mL (≈ 0.726 µM) in data set [4]; 0.2 µg/mL (≈ 0.363 µM) in data set [5]; 3.13 µg/mL (≈ 5.68 µM) in data set [6]. For the same molecule, the MIC in [7] was 0.1 µg/mL (≈ 0.182 µM). In data set [8], the 50% lethal dose (LD50) was above 3000 mg/kg.

Regarding `CO/N=C(\C(=O)N[C@@H]1C(=O)N2C(C(=O)[O-])=C(C[N+]34CCC(CO)(CC3)CC4)CS[C@H]12)c1nsc(N)n1` [Example 14, 7β-[(Z)-2-(5-Amino-1,2,4-thiadiazol-3-yl)-2-methoxyiminoacetamido]-3-[4-hydroxymethyl-1-quinuclidinio]methyl-3-cephem-4-carboxylate], the MIC was 1.56 µg/mL (≈ 2.9 µM) in data set [2]; 50 µg/mL (≈ 93 µM) in [3]; 0.1 µg/mL (≈ 0.186 µM) in the data set with Escherichia coli NIHJ; 0.8 µg/mL (≈ 1.49 µM) in data set [4]; 0.2 µg/mL (≈ 0.372 µM) in [5]; 3.13 µg/mL (≈ 5.82 µM) in [6]. Also, the MIC in [7] was 0.1 µg/mL (≈ 0.186 µM).

As to `CO/N=C(\C(=O)N[C@@H]1C(=O)N2C(C(=O)[O-])=C(C[N+]34CCC(C)(CC3)CC4)CS[C@H]12)c1nsc(N)n1` [Example 15, 7β-[(Z)-2-(5-Amino-1,2,4-thiadiazol-3-yl)-2-methoxyiminoacetamido]-3-(4-methyl-1-quinuclidinio)methyl-3-cephem-4-carboxylate], the MIC in [2] is 0.8 µg/mL (≈ 1.53 µM); in data set [3] it was 50 µg/mL (≈ 95.9 µM); in the data set on Escherichia coli NIHJ, 0.05 µg/mL (≈ 0.0959 µM); in data set [4], 0.8 µg/mL (≈ 1.53 µM); in [5], 0.2 µg/mL (≈ 0.383 µM); in [6], 1.56 µg/mL (≈ 2.99 µM). This molecule also registered a minimum inhibitory concentration (MIC) in data set [7] of 0.05 µg/mL (≈ 0.0959 µM).
